The values below come from ChEMBL document CHEMBL4819087, “Identification and optimization of 3-bromo-N'-(4-hydroxybenzylidene)-4-methylbenzohydrazide derivatives as mTOR inhibitors that induce autophagic cell death and apoptosis in triple-negative breast cancer” (Eur J Med Chem, 2021).

Assay [1] relates to MDA-MB-468. The assay can be described thus: cells. The following applies: Homo sapiens, MDA-MB-468, 24 h.
Description: Antiproliferative activity against human MDA-MB-468 cells assessed as reduction in cell viability incubated for 24 hrs by MTT assay
In assay [2] the test system is MDA-MB-231. The assay is described as follows: Induction of autophagy in human MDA-MB-231 cells assessed as MDC positive ratio at 1 uM incubated for 6 hrs by MDC staining based flow cytometry analysis. It is filed as functional. Background: In flow cytometry, cells or beads pass a laser one at a time.
The test system of assay [3] is A549. The assay is described as follows: cells. The following applies: Homo sapiens, A549, 24 h.
Description: Antiproliferative activity against human A549 cells assessed as reduction in cell viability incubated for 24 hrs by MTT assay
The target of assay [4] is Serine/threonine-protein kinase mTOR (Homo sapiens, UniProt P42345). The assay can be described thus: Inhibition of mTOR (unknown origin).
In assay [5] the test system is MDA-MB-231. The assay is described as follows: cells. The following applies: Homo sapiens, MDA-MB-231, 24 h.
Description: Antiproliferative activity against human MDA-MB-231 cells assessed as reduction in cell viability incubated for 24 hrs by MTT assay

Consider `O=C(Nc1nc2ccccc2[nH]1)c1ccc(OC(F)(F)F)cc1`, for which the IC50 in assay [1] worked out at 24.1 µM; in assay [3], 27.5 µM; in assay [4], 3.99 µM; in assay [5] it was 29 µM. For the same compound, in assay [2], the Activity is given as 11.22%.
Taken in the same sequence, the figures for `C/C(=N\NC(=O)c1cccc(Br)c1)c1ccc(N)cc1` were 13.1 µM, 13 µM, 6.21 µM, 10.9 µM and 15.81%.
In the same order, the values of `Cc1ccc(C(=O)Nc2cc3ccccc3cn2)cc1Br` are 25.9 µM, 26.4 µM, 15.3 µM, 32.1 µM and 11.8%.
Taken in the same sequence, the figures for `C/C(=N\NC(=O)c1cccc(Br)c1)c1ccc(C(=O)O)cc1` were 5.51 µM, 7.78 µM, 0.69 µM, 7.5 µM and 19.83%.
Regarding `C/C(=N\NC(=O)c1ccc(C)c(I)c1)c1ccc(C(F)(F)F)cc1`, the IC50 in assay [1] is 8.76 µM; in assay [3], 9.46 µM; in assay [4] it was 1.98 µM; in assay [5] it was 8.3 µM. In assay [2], the Activity stood at 14.89%.
In the same order, the values of `O=C(NCc1ccc(O)cc1)Nc1ccc(C(F)(F)F)cc1` are 17.5 µM, 36.7 µM, 10.3 µM, 22.9 µM and 8.29%.
`C/C(=N\NC(=O)c1cccc(I)c1)c1ccc(C(=O)O)cc1`: the IC50 in assay [1] stood at 6.37 µM; in assay [3], 8.91 µM; in assay [4], 0.82 µM; in assay [5], 8.96 µM. Besides, in assay [2], the Activity is 17.2%.
In the same order, the values of `C/C(=N\NC(=O)c1ccc(C)c(F)c1)c1ccc(C(=O)Nc2cc(N3CCOCC3)ccn2)cc1` are 12.1 µM, 13.9 µM, 3.83 µM, 13.2 µM and 19.22%.
In the same order, the values of `Cc1ccc(C(=O)NCCc2ccc(O)cc2)cc1Br` are 33.7 µM, 34 µM, over 30 µM, 41.7 µM and 11.23%.
Regarding `C/C(=N\NC(=O)c1cccc(I)c1)c1ccncc1`, the IC50 in assay [1] is 12.1 µM; in assay [3], 9.84 µM; in assay [4], 1.17 µM; in assay [5] it was 12.5 µM. Further, the Activity in assay [2] is recorded as 15.79%.
Regarding `C/C(=N\NC(=O)c1cccc(Br)c1)c1cc(O)cc(O)c1`, the IC50 is 11 µM in assay [1], 10.3 µM in assay [3], 8.2 µM in assay [4] and 9.13 µM in assay [5]. Moreover, the Activity in assay [2] turned out to be 16.33%.
In the same order, the values of `CO[C@H]1C[C@@H]2CC[C@@H](C)[C@@](O)(O2)C(=O)C(=O)N2CCCC[C@H]2C(=O)O[C@H]([C@H](C)C[C@@H]2CC[C@@H](OC(=O)C(C)(CO)CO)[C@H](OC)C2)CC(=O)[C@H](C)/C=C(\C)[C@@H](O)[C@@H](OC)C(=O)[C@H](C)C[C@H](C)/C=C/C=C/C=C/1C` [TEMSIROLIMUS] are 10.9 µM, 11.8 µM, 2.29 µM, 17.6 µM and 15.33%.
For the compound `C/C(=N\NC(=O)c1cccc(F)c1)c1ccc(O)cc1O`, the IC50 in assay [1] is 9.24 µM; in assay [3], 15.4 µM; in assay [4] it was 4.22 µM; in assay [5], 10.8 µM. Moreover, the Activity in assay [2] amounted to 15.04%.
In the same order, the values of `O=C(Nc1ccc(C(F)(F)F)cc1)Nc1nc2ccccc2[nH]1` are 23.7 µM, 23.5 µM, 23.7 µM, 22.8 µM and 8.2%.
Taken in the same sequence, the figures for `O=C(NCc1ccc(O)cc1)Nc1cccc(Cl)c1` were 25.9 µM, 31.2 µM, 27.1 µM, 19.5 µM and 9.22%.
Taken in the same sequence, the figures for `C/C(=N\NC(=O)c1ccc(C)c(F)c1)c1ccc(N)cc1` were 9.55 µM, 12 µM, 4.32 µM, 8.4 µM and 15.44%.
For `C/C(=N\NC(=O)c1cccc(Br)c1)c1ccc(C(=O)Nc2cc(N3CCOCC3)ccn2)cc1`, the IC50 in assay [1] worked out at 10.2 µM; in assay [3], 13.7 µM; in assay [4], 2.45 µM; in assay [5], 9.21 µM. Also, the Activity in assay [2] is given as 20.99%.
In the same order, the values of `C/C(=N\NC(=O)c1ccc(C)c(Br)c1)c1ccc(O)cc1` are 8.46 µM, 10.1 µM, 2.01 µM, 6.71 µM and 19.27%.
Taken in the same sequence, the figures for `C/C(=N\NC(=O)c1cccc(Br)c1)c1ccc(C(=O)NN2CCOCC2)cc1` were 8.17 µM, 11.2 µM, 4.84 µM, 8.11 µM and 17.2%.
Taken in the same sequence, the figures for `C/C(=N\NC(=O)c1cccc(I)c1)c1ccc(N)cc1` were 8.3 µM, 13 µM, 4.79 µM, 13.1 µM and 15.27%.
In the case of `C/C(=N\NC(=O)c1cccc(F)c1)c1ccc(C(=O)Nc2nc3ccccc3[nH]2)cc1`, the half-maximal inhibitory concentration (IC50) in assay [1] is 6.06 µM; in assay [3] it was 7.81 µM; in assay [4], 0.83 µM; in assay [5], 5.03 µM. Besides, in assay [2], the Activity is 22.34%.
Taken in the same sequence, the figures for `O=C(NCc1cc(C(F)(F)F)cc(C(F)(F)F)c1)Nc1ccc(C(F)(F)F)cc1` were 17.9 µM, 13.3 µM, 20.4 µM, 16.9 µM and 9.62%.
In the same order, the values of `C/C(=N\NC(=O)c1ccc(C)c(Br)c1)c1ccc(C(F)(F)F)cc1` are 9.91 µM, 9.07 µM, 4.76 µM, 9.3 µM and 18.65%.
In the same order, the values of `Cc1ccc(C(=O)Nc2ccc3ccccc3n2)cc1Br` are 27.5 µM, 31.6 µM, 17.9 µM, 38 µM and 13.81%.
On to `O=C(NCc1cc(C(F)(F)F)cc(C(F)(F)F)c1)Nc1cccc(F)c1`, for which the IC50 amounted to 17.5 µM in assay [1], 12.5 µM in assay [3], 17.6 µM in assay [4] and 13.8 µM in assay [5]. For the same compound, the Activity in assay [2] amounted to 8.77%.
For the compound `CO[C@H]1C[C@@H]2CC[C@@H](C)[C@@](O)(O2)C(=O)C(=O)N2CCCC[C@H]2C(=O)O[C@H]([C@H](C)C[C@@H]2CC[C@@H](O)[C@H](OC)C2)CC(=O)[C@H](C)/C=C(\C)[C@@H](O)[C@@H](OC)C(=O)[C@H](C)C[C@H](C)/C=C/C=C/C=C/1C` [SIROLIMUS], the IC50 in assay [1] was 37.2 µM; in assay [3], 30.7 µM; in assay [5], 35.8 µM. In assay [2], the Activity amounted to 31.03%.
For the compound `C/C(=N\NC(=O)c1ccc(C)c(Br)c1)c1ccc(N)cc1`, the IC50 in assay [1] came to 12.1 µM; in assay [3], 13.6 µM; in assay [4] it was 7.3 µM; in assay [5] it was 9.91 µM. Also, the Activity in assay [2] came to 18.9%.
Taken in the same sequence, the figures for `Cc1ccc(C(=O)NCc2ccc(O)cc2)cc1Br` were 41.9 µM, 33.8 µM, over 30 µM, 33.4 µM and 12.73%.
Taken in the same sequence, the figures for `C/C(=N\NC(=O)c1ccc(C)c(I)c1)c1ccncc1` were 10.3 µM, 11.3 µM, 1.66 µM, 9.08 µM and 16.25%.
Taken in the same sequence, the figures for `C/C(=N\NC(=O)c1cccc(Br)c1)c1ccc(C(=O)Nc2cc[nH]n2)cc1` were 8.32 µM, 10.5 µM, 1.29 µM, 9.24 µM and 19.78%.
On to `C/C(=N\NC(=O)c1ccc(C)c(Br)c1)c1ccncc1`, for which the IC50 in assay [1] came out at 8.69 µM; in assay [3], 12.4 µM; in assay [4], 5.24 µM; in assay [5], 11 µM. The Activity in assay [2] stood at 15.26%.
In the same order, the values of `O=C(Nc1ccc(C(F)(F)F)cc1)Nc1cccc(F)c1` are 11.9 µM, 11.5 µM, 12.6 µM, 10.3 µM and 7.22%.
Taken in the same sequence, the figures for `C/C(=N\NC(=O)c1ccc(C)c(I)c1)c1ccc(N)cc1` were 9.54 µM, 9.93 µM, 5.08 µM, 8.46 µM and 14.28%.
Taken in the same sequence, the figures for `O=C(NCc1ccc(O)cc1)Nc1cccc(F)c1` were 34.1 µM, 22.3 µM, over 30 µM, 27.7 µM and 8.31%.
Regarding `CC(NC(=O)Nc1cccc(F)c1)c1ccccc1` (centres undefined), the IC50 in assay [1] stood at 31.9 µM; in assay [3], 33 µM; in assay [4] it was 16.9 µM; in assay [5] it was 34.1 µM. Further, in assay [2], the Activity was found to be 8.29%.
In the case of `O=C(Nc1cccc(F)c1)Nc1nc2ccccc2[nH]1`, the IC50 came to 24.1 µM in assay [1], 19.8 µM in assay [3], 4.93 µM in assay [4] and 19 µM in assay [5]. Moreover, the Activity in assay [2] is recorded as 8.32%.

Broadly, the IC50 is the concentration that gives 50% inhibition. Read a high IC50 as weaker potency in that assay.
